Laboratory results as given in the supplement of paper PMC5908809.

Columns and labels:
[1] = tested on: normal NK cells expanded with K562-aAPC; test: drug sensitivity score (DSS) (DSS units); higher = more sensitive; extreme values may be limits of the assay; conditions: 72 h; IL-2 2.5 ng/mL
Protocol: (§1)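 Drug sensitivity and resistance testing on K562-aAPC-expanded normal NK cells: 5 concentrations (10-fold steps over a 10,000-fold range), 72 h at 37 °C, viability by CellTiter-Glo normalised to DMSO and benzethonium chloride controls; DSS from the fitted curve.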

NK-YS (IL-2 2.5 ng/mL) [2] = test: as above; conditions: 72 h
[3] = tested on: normal primary NK cells, pool 1 (3 donors), resting (IL-2 0 ng/mL); test: as above; conditions: 72 h
SNK-6 (IL-2 2.5 ng/mL) [4] = test: as above; conditions: 72 h
KHYG-1 (IL-2 2.5 ng/mL) [5] = test: as above; conditions: 72 h
IMC-1 (IL-2 20 ng/mL) [6] = test: as above; conditions: 72 h
YT (IL-2 2.5 ng/mL) [7] = test: as above; conditions: 72 h
[8] = tested on: normal primary NK cells, pool 1 (3 donors) (IL-2 2.5 ng/mL); test: as above; conditions: 72 h
KAI3 (IL-2 2.5 ng/mL) [9] = test: as above; conditions: 72 h
NKL (IL-2 2.5 ng/mL) [10] = test: as above; conditions: 72 h
[11] = tested on: normal primary NK cells, pool 3 (3 donors) (IL-2 2.5 ng/mL); test: as above; conditions: 72 h
DERL-7 (IL-2 2.5 ng/mL) [12] = test: as above; conditions: 72 h
NK-92 (IL-2 2.5 ng/mL) [13] = test: as above; conditions: 72 h
[14] = tested on: normal primary NK cells, pool 2 (3 donors) (IL-2 2.5 ng/mL); test: as above; conditions: 72 h
NK-YS (IL-2 2.5 ng/mL) [15] = test: percent inhibition of viability; higher = more inhibition; conditions: 72 h
[16] = tested on: normal primary NK cells, pool 1 (3 donors), resting (IL-2 0 ng/mL); test: as above; conditions: 72 h
SNK-6 (IL-2 2.5 ng/mL) [17] = test: as above; conditions: 72 h
KHYG-1 (IL-2 2.5 ng/mL) [18] = test: as above; conditions: 72 h
IMC-1 (IL-2 20 ng/mL) [19] = test: as above; conditions: 72 h
YT (IL-2 2.5 ng/mL) [20] = test: as above; conditions: 72 h
[21] = tested on: normal primary NK cells, pool 1 (3 donors) (IL-2 2.5 ng/mL); test: as above; conditions: 72 h
KAI3 (IL-2 2.5 ng/mL) [22] = test: as above; conditions: 72 h
NKL (IL-2 2.5 ng/mL) [23] = test: as above; conditions: 72 h
[24] = tested on: normal primary NK cells, pool 3 (3 donors) (IL-2 2.5 ng/mL); test: as above; conditions: 72 h
DERL-7 (IL-2 2.5 ng/mL) [25] = test: as above; conditions: 72 h
NK-92 (IL-2 2.5 ng/mL) [26] = test: as above; conditions: 72 h
[27] = tested on: normal primary NK cells, pool 2 (3 donors) (IL-2 2.5 ng/mL); test: as above; conditions: 72 h
[28] = tested on: normal NK cells expanded with K562-aAPC; test: as above; conditions: 72 h, IL-2 2.5 ng/mL
Protocol: as §1

C=CCN(/C=C1/C(=O)O[C@H](COC)[C@@]2(C)C1=C(O)C(=O)C1=C2[C@H](OC(C)=O)C[C@]2(C)C(=O)CC[C@@H]12)CC=C [Sonolisib] (max concentration tested 10000 nM)
Conditions | drug sensitivity score
DERL-7 (IL-2 2.5 ng/mL) [12] | 1.49
IMC-1 (IL-2 20 ng/mL) [6] | 0
KAI3 (IL-2 2.5 ng/mL) [9] | 2.98
KHYG-1 (IL-2 2.5 ng/mL) [5] | 0.5
NK-92 (IL-2 2.5 ng/mL) [13] | 4.58
NK-YS (IL-2 2.5 ng/mL) [2] | 2.85
NKL (IL-2 2.5 ng/mL) [10] | 3.66
SNK-6 (IL-2 2.5 ng/mL) [4] | 0.79
YT (IL-2 2.5 ng/mL) [7] | 1.45
[1] | 1.91
[3] | 5.24
[8] | 5.59
[11] | 2.06
[14] | 3.83

percent inhibition of viability [%]
Conditions | 1 nM | 10 nM | 100 nM | 1000 nM | 10000 nM
DERL-7 (IL-2 2.5 ng/mL) [25] | 4.44 | 0.05 | 7.66 | 7.97 | 25.7
IMC-1 (IL-2 20 ng/mL) [19] | -9.13 | -2.03 | -1.28 | -0.72 | 6.3
KAI3 (IL-2 2.5 ng/mL) [22] | -2.28 | -8.79 | -2.59 | 6.95 | 37.8
KHYG-1 (IL-2 2.5 ng/mL) [18] | -3.26 | -9.75 | -5.87 | -0.67 | 19.3
NK-92 (IL-2 2.5 ng/mL) [26] | -0.51 | -6.14 | 4.9 | 21.8 | 43.3
NK-YS (IL-2 2.5 ng/mL) [15] | -0.83 | -2.4 | -0.43 | 13.8 | 28.2
NKL (IL-2 2.5 ng/mL) [23] | -7.87 | -4.63 | -1.36 | 21.9 | 28.6
SNK-6 (IL-2 2.5 ng/mL) [17] | -13.7 | -20.8 | -21.5 | -12.3 | 28.8
YT (IL-2 2.5 ng/mL) [20] | -3.75 | -4.21 | -0.91 | 9.17 | 19.1
[16] | -7.82 | 8.6 | 11.1 | 16.4 | 59.7
[21] | -5.92 | 11.5 | 7.17 | 23.3 | 57
[24] | -11.6 | 9.95 | 14.7 | 4.05 | 31.2
[27] | -5.83 | 0.64 | 8.59 | 17.3 | 40.2
[28] | -4.81 | -6.86 | -3.23 | 3.22 | 31.4

C[C@@H](C(=O)O)c1ccc(-c2ccccc2)c(F)c1 [Tarenflurbil] (max concentration tested 10000 nM)
Conditions | drug sensitivity score
DERL-7 (IL-2 2.5 ng/mL) [12] | 0
IMC-1 (IL-2 20 ng/mL) [6] | 0
KAI3 (IL-2 2.5 ng/mL) [9] | 1.72
KHYG-1 (IL-2 2.5 ng/mL) [5] | 0
NK-92 (IL-2 2.5 ng/mL) [13] | 2.36
NK-YS (IL-2 2.5 ng/mL) [2] | 0.07
NKL (IL-2 2.5 ng/mL) [10] | 5.13
SNK-6 (IL-2 2.5 ng/mL) [4] | 0.04
YT (IL-2 2.5 ng/mL) [7] | 0.47
[1] | 0
[3] | 0.07
[8] | 0
[11] | 0
[14] | 0

percent inhibition of viability [%]
Conditions | 1 nM | 10 nM | 100 nM | 1000 nM | 10000 nM
DERL-7 (IL-2 2.5 ng/mL) [25] | 4.46 | 2.02 | -0.14 | 2.03 | -3.24
IMC-1 (IL-2 20 ng/mL) [19] | -1.05 | 0.62 | -1.4 | -6.55 | 2.74
KAI3 (IL-2 2.5 ng/mL) [22] | -7.87 | -7.47 | 3.52 | 11.2 | 23.6
KHYG-1 (IL-2 2.5 ng/mL) [18] | -3.32 | -5.74 | 0.55 | -0.63 | 6.21
NK-92 (IL-2 2.5 ng/mL) [26] | -0.98 | -4.75 | -2.63 | 14.7 | 23.1
NK-YS (IL-2 2.5 ng/mL) [15] | -4.2 | -2.88 | 4.93 | 1.37 | 11.5
NKL (IL-2 2.5 ng/mL) [23] | -0.03 | -4.97 | 19.8 | 21.7 | 16.2
SNK-6 (IL-2 2.5 ng/mL) [17] | -1.12 | -28.7 | -23.7 | -16.9 | 14.1
YT (IL-2 2.5 ng/mL) [20] | -2.12 | -10.1 | 2.14 | 4.49 | 14.9
[16] | -0.07 | 18.2 | 4.52 | 11.8 | 8.75
[21] | 2 | 12.8 | 9.24 | 3.23 | 7.48
[24] | -14.1 | -0.87 | -2.01 | -2.07 | 2.43
[27] | -7.01 | 3.47 | 9.98 | 6.83 | 1.08
[28] | -6.17 | -4.88 | -3.95 | 0.95 | 3.26
